From patent US11345650B1, “Methods and systems for crystallizing and isolating individual cannabinoids” (MYKU Biosciences LLC, priority 2021, dated 2022)

Test: Minimum concentration of CBD required for crystallization from solution
Format: physicochemical
Description: The minimum concentration of CBD required for selective crystallization from a solution containing a plurality of cannabinoids was evaluated.
The CBD-rich solution shown in Table A7 was diluted in MCT coconut oil to the aforementioned CBD concentrations. The samples were heated to 60° C. for about five minutes. Then, each solution was subjected to the following nucleation factors: agitation (intense stirring), cold shock (cooling solution to −20° C. and mixing), introduction of a CBD seed crystal, and exposure to a vacuum at a pressure of −25 inHg). Photographs of the crystallized cannabinoids were taken after 24 hours.
The experiment was also repeated using mixtures of cannabinoid CBD and THCa isolates in oleic acid.

Question: For `C=C(C)[C@@H]1CCC(C)=C[C@H]1c1c(O)cc(CCCCC)cc1O` [CBD, Cannabidiol], which “lowest tested concentration of CBD that exhibited crystallization” value (CBD-rich solution with a plurality of cannabinoids diluted in MCT coconut oil, heated to 60° C., agitation, cold shock −20° C., seed crystal, vacuum −25 inHg, after 24 hours) is on record?
Answer: The value was 19.6%.

Question: What about the “lowest tested concentration of CBD that crystallized” value (mixtures of CBD and THCa isolates in oleic acid (FIG. 16: 24% CBD, 1% THCA, 75% oleic acid)) of the same compound?
Answer: The value was 24%.
